From article PMC8161026, “Synthesis and Anticancer Activity Evaluation of 5-[2-Chloro-3-(4-nitrophenyl)-2-propenylidene]-4-thiazolidinones” (Molecules, 2021)

Experiments:
[1] = tested on: K-562; conditions: for TI (Therapeutic Index): GI50 (normal blood lymphocyte)/GI50 (K-562); for TGI: K-562 (Leukemia), 48 h, SRB
[2] = tested on: SR; conditions: for TI (Therapeutic Index): GI50 (normal blood lymphocyte)/GI50 (SR); for TGI: SR (Leukemia), 48 h, SRB
[3] = tested on: EKVX; conditions: EKVX (Non-Small Cell Lung Cancer), 48 h, SRB
[4] = tested on: KM12; conditions: KM12 (Colon Cancer), 48 h, SRB
[5] = tested on: U251; conditions: U251 (CNS Cancer), 48 h, SRB
[6] = tested on: 786-0; test: cells; conditions: Homo sapiens, 786-0, 48 h; for CC50: read-out: LC50
[7] = tested on: SN12C; test: cells; conditions: Homo sapiens, 48 h; for CC50: read-out: LC50
[8] = tested on: NCI-H522; test: NCI DTP 60 cell line screen, SRB; conditions: for GI50 / CC50: Homo sapiens, NCI-H522, 48 h; for CC50: read-out: LC50; for TGI: NCI-H522 (Non-Small Cell Lung Cancer), 48 h, SRB
[9] = tested on: SF-295; test: NCI DTP 60 cell line screen, SRB; conditions: for GI50 / CC50: Homo sapiens, SF-295, 48 h; for CC50: read-out: LC50; for TGI: SF-295 (CNS Cancer), 48 h, SRB
[10] = tested on: M14; test: NCI DTP 60 cell line screen, SRB; conditions: for GI50 / CC50: Homo sapiens, M14, 48 h; for CC50: read-out: LC50; for TGI: M14 (Melanoma), 48 h, SRB
[11] = tested on: OVCAR-3; test: NCI DTP 60 cell line screen, SRB; conditions: for GI50 / CC50: Homo sapiens, OVCAR-3, 48 h; for CC50: read-out: LC50; for TGI: OVCAR-3 (Ovarian Cancer), 48 h, SRB
[12] = tested on: OVCAR-4; test: NCI DTP 60 cell line screen, SRB; conditions: for GI50 / CC50: Homo sapiens, OVCAR-4, 48 h; for CC50: read-out: LC50; for TGI: OVCAR-4 (Ovarian Cancer), 48 h, SRB
[13] = tested on: SK-OV-3; test: NCI DTP 60 cell line screen, SRB; conditions: for GI50 / CC50: Homo sapiens, SK-OV-3, 48 h; for CC50: read-out: LC50; for TGI: SK-OV-3 (Ovarian Cancer), 48 h, SRB
[14] = tested on: ACHN; test: NCI DTP 60 cell line screen, SRB; conditions: 48 h; for TGI: ACHN (Renal Cancer), SRB; for GI50 / CC50: Homo sapiens, ACHN; for CC50: read-out: LC50
[15] = tested on: TK-10; test: NCI DTP 60 cell line screen, SRB; conditions: for GI50 / CC50: Homo sapiens, TK-10, 48 h; for CC50: read-out: LC50; for TGI: TK-10 (Renal Cancer), 48 h, SRB
[16] = tested on: BT-549; test: NCI DTP 60 cell line screen, SRB; conditions: for TGI: BT-549 (Breast Cancer), 48 h, SRB; for GI50 / CC50: Homo sapiens, BT-549, 48 h; for CC50: read-out: LC50
[17] = tested on: AGS (gastric cancer); test: MTT cell viability assay; type: cell-based; conditions: Homo sapiens, 24 h
Method: (§1) In the second stage of the research, Ciminalum-thiazolidinone hybrids were investigated for antitumor activity on the lines of gastric cancer (AGS), human colon cancer (DLD-1), and breast cancers (MCF-7 and MDA-MB-231). The study was performed in the MTT assay according to the method described previously. The studied cancer line was sensitive to the action of the studied compounds that inhibited its growth in micromolar ranges of GI50. The hit compounds that inhibited the growth of all four cancer lines with the lowest GI50 values were [5-[2-chloro-3-(4-nitrophenyl)prop-2-enylidene]-rhodanines 2c, 2d, 2h, and 2i (Table 4).

[18] = tested on: DLD-1 (human colon cancer); test: MTT cell viability assay; type: cell-based; conditions: DLD-1, MTT, 24 h
Method: as §1

[19] = tested on: MCF-7 (breast cancer); test: MTT cell viability assay; type: cell-based; conditions: Homo sapiens, MCF7; MCF-7, MTT, 24 h
Method: as §1

[20] = tested on: MDA-MB-231 (breast cancer); test: MTT cell viability assay; type: cell-based; conditions: Homo sapiens; MDA-MB-231, MTT, 24 h
Method: as §1

[21] = tested on: HL-60(TB); conditions: for TI (Therapeutic Index): GI50 (normal blood lymphocyte)/GI50 (HL-60(TB)); for TGI: HL-60(TB) (Leukemia), 48 h, SRB
[22] = tested on: HL-60(TB); test: cells; conditions: Homo sapiens, HL-60, 48 h; for CC50: read-out: LC50

## O=C(O)C(Cc1ccccc1)N1C(=O)/C(=C/C(Cl)=C/c2ccc([N+](=O)[O-])cc2)SC1=S (stereo not shown) [Compound 2j, 2-{5-[(Z,2Z)-2-Chloro-3-(4-nitrophenyl)-2-propenylidene]-4-oxo-2-thioxothiazolidin-3-yl}-3-phenylpropanoic acid]
[1]
  TI (Therapeutic Index): 16.27
  TGI: > 100 µM
[2]
  TI (Therapeutic Index): 19.99
  TGI: > 100 µM
[3]
  TGI: 7.29 µM
[4]
  TGI: 4.35 µM
[5]
  TGI: 3.52 µM
[6]
  GI50: 2.1 µM
  CC50: > 100 µM
[7]
  GI50: 2.84 µM
  CC50: > 100 µM
[8]
  GI50: 1.72 µM
  CC50: 29.5 µM
  TGI: 4.47 µM
[9]
  GI50: 2.59 µM
  CC50: > 100 µM
  TGI: 7.85 µM
[10]
  GI50: 2.53 µM
  CC50: > 100 µM
  TGI: > 100 µM
[11]
  GI50: 1.76 µM
  CC50: 6.98 µM
  TGI: 3.51 µM
[12]
  GI50: 3.21 µM
  CC50: > 100 µM
  TGI: > 100 µM
[13]
  GI50: 4.13 µM
  CC50: > 100 µM
  TGI: > 100 µM
[14]
  TGI: 3.30 µM
  GI50: 1.8 µM
  CC50: 6.04 µM
[15]
  GI50: 2.43 µM
  CC50: > 100 µM
  TGI: > 100 µM
[16]
  TGI: 4.17 µM
  GI50: 1.79 µM
  CC50: > 100 µM

## O=C(O)CCN1C(=O)/C(=C/C(Cl)=C/c2ccc([N+](=O)[O-])cc2)SC1=S [Compound 2h, 3-{5-[(Z,2Z)-2-Chloro-3-(4-nitrophenyl)-2-propenylidene]-4-oxo-2-thioxothiazolidin-3-yl}propanoic acid]
[17]
  GI50: 2.69 µM
[18]
  GI50: 3.67 µM
[19]
  GI50: 3.62 µM
[20]
  GI50: 1.63 µM
[21]
  TI (Therapeutic Index): 157.18
  TGI: 1.87 µM
[1]
  TI (Therapeutic Index): 257.26
  TGI: 2.83 µM
[2]
  TGI: 1.41 µM
[3]
  TGI: 4.01 µM
[4]
  TGI: 29.5 µM
[5]
  TGI: 2.00 µM
[22]
  GI50: 0.347 µM
  CC50: > 100 µM
[6]
  GI50: 1.13 µM
  CC50: 5.42 µM
[7]
  GI50: 1.05 µM
  CC50: 8.48 µM
[9]
  GI50: 3.36 µM
  CC50: > 100 µM
  TGI: 21.6 µM
[10]
  GI50: 1.66 µM
  CC50: 7.74 µM
  TGI: 3.58 µM
[11]
  GI50: 0.135 µM
  CC50: 66.6 µM
  TGI: 6.05 µM
[12]
  GI50: 2.66 µM
  CC50: 56.2 µM
  TGI: 14.9 µM
[13]
  GI50: 6.83 µM
  CC50: 77.6 µM
  TGI: 27.4 µM
[14]
  TGI: 2.42 µM
  GI50: 1.02 µM
  CC50: 5.76 µM
[15]
  GI50: 2.33 µM
  CC50: 92 µM
  TGI: 16.9 µM
[16]
  TGI: 0.920 µM
  GI50: 0.247 µM
  CC50: 36.3 µM

## O=C1NC(=S)S/C1=C\C(Cl)=C\c1ccc([N+](=O)[O-])cc1 [Compound 2b, 5-[(Z,2Z)-2-Chloro-3-(4-nitrophenyl)-2-propenylidene]-2-thioxo-4-thiazolidinone]
[17]
  GI50: 7.86 µM
[18]
  GI50: 8.39 µM
[19]
  GI50: 4.79 µM
[20]
  GI50: 10.6 µM
[21]
  TGI: 14.4 µM
[1]
  TGI: 42.5 µM
[2]
  TGI: 7.96 µM
[3]
  TGI: > 50 µM
[4]
  TGI: 14.6 µM
[5]
  TGI: 9.73 µM
[22]
  GI50: 1.21 µM
  CC50: > 50 µM
[6]
  GI50: 9.4 µM
  CC50: 37.6 µM
[7]
  GI50: 4.11 µM
  CC50: > 50 µM
[8]
  GI50: 3.19 µM
  CC50: 42.3 µM
  TGI: 13.1 µM
[9]
  GI50: 8.46 µM
  CC50: > 50 µM
  TGI: 37.9 µM
[10]
  GI50: 8.87 µM
  CC50: > 50 µM
  TGI: 32.2 µM
[11]
  GI50: 1.65 µM
  CC50: 26.6 µM
  TGI: 8.08 µM
[12]
  GI50: 1.95 µM
  CC50: > 50 µM
  TGI: 11.7 µM
[13]
  GI50: 13 µM
  CC50: > 50 µM
  TGI: > 50 µM
[14]
  TGI: 11.8 µM
  GI50: 3.64 µM
  CC50: 31.7 µM
[15]
  GI50: 10.6 µM
  CC50: > 50 µM
  TGI: 23.2 µM
[16]
  TGI: 4.74 µM
  GI50: 1.47 µM
  CC50: 27.2 µM

## O=C1/C(=C/C(Cl)=C/c2ccc([N+](=O)[O-])cc2)SC(=S)N1/N=C\C(Cl)=C\c1ccc([N+](=O)[O-])cc1 [Compound 2c, 5-[(Z,2Z)-2-Chloro-3-(4-nitrophenyl)-2-propenylidene]-3-[(Z,2Z)-2-chloro-3-(4-nitrophenyl)-2-propenylideneamino]-2-thioxo-4-thiazolidinone]
[17]
  GI50: 4.43 µM
[18]
  GI50: 6.34 µM
[19]
  GI50: 3.6 µM
[20]
  GI50: 1.59 µM
[21]
  TGI: 23.3 µM
[1]
  TGI: 25.5 µM
[2]
  TGI: 12.0 µM
[3]
  TGI: 47.7 µM
[4]
  TGI: 59.1 µM
[5]
  TGI: 24.5 µM
[22]
  GI50: 5.32 µM
  CC50: 87.2 µM
[6]
  GI50: 12.1 µM
  CC50: 77.8 µM
[7]
  GI50: 29 µM
  CC50: > 100 µM
[8]
  GI50: 16.3 µM
  CC50: 66.2 µM
  TGI: 32.9 µM
[9]
  GI50: 18 µM
  CC50: 77.1 µM
  TGI: 37.3 µM
[10]
  GI50: 16.2 µM
  CC50: 78.5 µM
  TGI: 35.7 µM
[11]
  GI50: 0.821 µM
  CC50: 41.1 µM
  TGI: 12.7 µM
[13]
  GI50: 59.6 µM
  CC50: > 100 µM
  TGI: > 100 µM
[14]
  TGI: 29.7 µM
  GI50: 15.6 µM
  CC50: 56.4 µM
[15]
  GI50: 28 µM
  CC50: > 100 µM
  TGI: 69.6 µM
[16]
  TGI: 76.0 µM
  GI50: 27.3 µM
  CC50: > 100 µM

## O=C1/C(=C/C(Cl)=C/c2ccc([N+](=O)[O-])cc2)SC(=S)N1c1ccc(O)cc1 [Compound 2f, 5-[(Z,2Z)-2-Chloro-3-(4-nitrophenyl)-2-propenylidene]-3-(4-hydroxyphenyl)-2-thioxo-4-thiazolidinone]
[21]
  TI (Therapeutic Index): >206.19
  TGI: 4.48 µM
[1]
  TI (Therapeutic Index): >191.94
  TGI: > 100 µM
[2]
  TI (Therapeutic Index): >10,000
  TGI: 0.138 µM
[3]
  TGI: 16.2 µM
[4]
  TGI: > 100 µM
[5]
  TGI: 3.06 µM
[22]
  GI50: 0.485 µM
  CC50: > 100 µM
[6]
  GI50: 2.04 µM
  CC50: 7.18 µM
[7]
  GI50: 1.98 µM
  CC50: > 100 µM
[9]
  GI50: 2.26 µM
  CC50: > 100 µM
  TGI: 13.8 µM
[10]
  GI50: 1.9 µM
  CC50: 7.32 µM
  TGI: 3.73 µM
[11]
  GI50: 0.977 µM
  CC50: > 100 µM
  TGI: 41.8 µM
[12]
  GI50: 2.63 µM
  CC50: > 100 µM
  TGI: > 100 µM
[13]
  GI50: 10.2 µM
  CC50: > 100 µM
  TGI: 41.5 µM
[14]
  TGI: 3.51 µM
  GI50: 1.7 µM
  CC50: 7.27 µM
[15]
  GI50: 4.87 µM
  CC50: > 100 µM
  TGI: 29.0 µM
[16]
  TGI: 7.71 µM
  GI50: 1.55 µM
  CC50: > 100 µM
